Reference: US12637469B2, “1H-pyrazole derivative and application thereof as dual target inhibitor of Syk and VEGFR2” (Ocumension Therapeutics (Suzhou) Co., Ltd., priority 2020, dated 2026)

Tests used:
CYP3A4 = biological target: T1, CYP3A4 (Homo sapiens, UniProt P08684); assay: Inhibition of cytochrome P450 enzymes in human liver microsomes (LC-MS/MS); format: in vitro ADME
T1 construct: human liver microsome working solution was prepared; from tissue; host or cells: human liver microsomes
Protocol: (§1) In order to investigate the activity of the compound on human liver microsomal CYP450 enzyme, Liquid Chromatography-Mass Spectrometry/Mass Spectrometry (LC-MS/MS) method was used in this study to determine the inhibitory effect of compound 1 on five main subtypes (CYP1A2, 2C9, 2C19, 2D6, 3A4) of human hepatocyte CYP450 enzyme, and compound screening and analysis were conducted using IC50 value as the indicator.
(§2) • 1) A test compound and a standard inhibitor working solution (100×) were prepared; • 2) microsomes were taken out of a −80° C. freezer, thawed on ice, labeled with the date, and put back in the freezer immediately after use; • 3) 20 microliters of matrix solution was added to the corresponding wells; • 4) 20 microliters of phosphate buffered saline was added to the blank wells; • 5) 2 microliters of the test compound and positive control working solution were added to the corresponding wells; • 6) 2 microliters of solvent was added to each of the inhibitor-free wells and the blank wells; • 7) human liver microsome working solution was prepared; • 8) 158 microliters of HLM working solution was added to all wells of the incubation plate; • 9) the plate was heated in a 37° C. water bath for about 10 minutes; • 10) NADPH cofactor solution was prepared; • 11) 20 microliters of NADPH cofactor was added to all of the incubation wells; • 12) all CYPs were subjected to mixed culture in a 37° C. water bath for 10 minutes; • 13) at a certain point in time, the reaction was stopped by adding 400 microliters of cold solution (200 ng/mL of tolbutamide in acetonitrile and 200 ng/mL of Labetalol in acetonitrile); • 14) the samples were centrifuged at 4000 rpm for 20 minutes to precipitate proteins; • 15) 200 microliters of supernatant was transferred into 100 microliters of high performance liquid chromatography water, and shaked for 10 minutes; • 16) LC/MS/MS analysis was started.

CYP1A2 = biological target: T2, CYP1A2 (Homo sapiens, UniProt P05177); assay: as above; format: in vitro ADME
T2 construct: human liver microsome working solution was prepared; from tissue; host or cells: human liver microsomes
Protocol: as §1, §2

CYP2C9 = biological target: T3, CYP2C9 (Homo sapiens, UniProt P11712); assay: as above; format: in vitro ADME
T3 construct: human liver microsome working solution was prepared; from tissue; host or cells: human liver microsomes
Protocol: as §1, §2

CYP2D6 = biological target: T4, CYP2D6 (Homo sapiens, UniProt P10635); assay: as above; format: in vitro ADME
T4 construct: human liver microsome working solution was prepared; from tissue; host or cells: human liver microsomes
Protocol: as §1, §2

Syk kinase = biological target: T5, Syk kinase (Homo sapiens, UniProt P43405); assay: In vitro inhibitory effect on Syk kinase (HTRF enzymatic experiment); format: biochemical; settings: ATP 2 μM, read-out: IC50 (nM) for inhibition of Syk enzyme
T5 construct: purchased Invitrogen PV3857
Excerpt: The interaction between the substrate and the enzyme was detected by HTRF, using the IC50 value of the compound as an indicator to evaluate the inhibitory effect of the compound on Syk kinase.
• Syk kinase (Invitrogen, PV3857) • DTT (Sigma #43815) • ATP (Sigma #A7699) • MgCl2 (Sigma #63020) • MnCl2 (Sigma #M1787) • EDTA (Invitrogen #15575-020) • HEPES Buffer (Invitrogen #15630-080) • HTRF® KinEASE™ TK (Cisbio #62TKOPEC, 20000 tests) • Low volume, 384-well, white polystyrene plate (Greiner #784075) • 384 Well Microplates (Greiner #781946) • Centrifuge (Eppendorf #5810R) • Pipette (Eppendorf) • Pipette (Greiner) • Pipette gun (Eppendorf) • Mutidorp Pipette • POD 810 Plate Assembler Automatic Microplate Pretreatment System • Envision Reader • Experimental Steps and Methods: • a) Compound dilution and plate-making: • 1) The compound powder was weighed, dissolved in a certain amount of DMSO at an initial concentration of 10 mM. • 2) The compound was diluted to a concentration of 0.74 mM, and plated with POD18, 135 nL per well, the starting compound concentration was 10 μM, and there were 11 concentration points, with 3-fold descending serial dilutions. • b) Enzyme-substrate reaction stage: • 1) Preparation and dilution of the experimental buffer: the 5×HTRF Buffer in the kit was diluted to 1×, and specified amounts of DTT and MgCl2 solutions were added for use. • 2) SYK enzyme reaction solution was prepared with 1×HTRF Buffer so that the final reaction concentration of SYK kinase was 0.0156 ng/μL. • 3) TK-Substrate-biotin/ATP mixture was prepared so that the final substrate concentration was controlled at 0.2 μM. ATP concentration was controlled at 2 μM. • 4) The solution and the mixture were added with a Mutidorp pipette, SYK enzyme solution and TK-Substrate-biotin/ATP mixture were each added 5 μL per well, and incubated with 23 solution for 1 hour. • c) Detection stage: • 1) 13.33 mL of ethylenediaminetetraacetic acid solution was added to the detection buffer of the kit, and specified amounts of Eu-labeled antibody and XL-665 were added to prepare the detection solution. • 2) The solution was added with a Mutidorp pipette, 10 μL of detection solution per well, and incubated with 23 solution for 1 hour. The reaction of the enzyme and substrate mixture was stopped. • 3) After centrifugation, the reading was obtained on Envision. • d) Data analyzation: the data was analyzed using XL-Fit and the IC50 value of the compound was calculated.

T4 sequence (P10635 whole entry): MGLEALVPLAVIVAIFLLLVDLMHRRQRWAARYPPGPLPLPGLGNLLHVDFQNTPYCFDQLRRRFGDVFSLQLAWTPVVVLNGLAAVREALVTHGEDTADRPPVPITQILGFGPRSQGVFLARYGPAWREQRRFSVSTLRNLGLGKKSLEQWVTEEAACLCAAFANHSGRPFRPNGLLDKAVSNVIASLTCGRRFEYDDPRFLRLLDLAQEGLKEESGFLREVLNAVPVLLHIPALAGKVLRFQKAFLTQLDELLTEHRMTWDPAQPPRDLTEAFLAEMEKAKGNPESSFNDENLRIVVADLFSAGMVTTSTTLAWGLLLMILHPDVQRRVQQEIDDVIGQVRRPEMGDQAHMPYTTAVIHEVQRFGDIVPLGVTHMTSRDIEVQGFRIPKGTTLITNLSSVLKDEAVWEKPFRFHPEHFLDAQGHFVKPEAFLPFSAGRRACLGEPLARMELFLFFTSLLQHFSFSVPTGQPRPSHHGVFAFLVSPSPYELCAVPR
T3 sequence (P11712 whole entry): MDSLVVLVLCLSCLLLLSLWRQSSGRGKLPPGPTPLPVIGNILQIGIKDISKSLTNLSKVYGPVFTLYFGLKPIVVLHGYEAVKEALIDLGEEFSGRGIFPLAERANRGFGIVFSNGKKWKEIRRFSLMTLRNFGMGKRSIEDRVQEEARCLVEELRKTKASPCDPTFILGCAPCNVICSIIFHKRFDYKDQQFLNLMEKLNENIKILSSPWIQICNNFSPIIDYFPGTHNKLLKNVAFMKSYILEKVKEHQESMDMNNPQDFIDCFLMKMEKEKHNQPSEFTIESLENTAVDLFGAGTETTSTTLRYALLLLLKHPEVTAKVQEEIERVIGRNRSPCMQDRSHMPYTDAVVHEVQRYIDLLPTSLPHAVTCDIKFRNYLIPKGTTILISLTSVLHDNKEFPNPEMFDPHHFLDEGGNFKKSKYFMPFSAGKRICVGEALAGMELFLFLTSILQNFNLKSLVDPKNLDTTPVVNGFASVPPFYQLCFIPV
T1 sequence (P08684 whole entry): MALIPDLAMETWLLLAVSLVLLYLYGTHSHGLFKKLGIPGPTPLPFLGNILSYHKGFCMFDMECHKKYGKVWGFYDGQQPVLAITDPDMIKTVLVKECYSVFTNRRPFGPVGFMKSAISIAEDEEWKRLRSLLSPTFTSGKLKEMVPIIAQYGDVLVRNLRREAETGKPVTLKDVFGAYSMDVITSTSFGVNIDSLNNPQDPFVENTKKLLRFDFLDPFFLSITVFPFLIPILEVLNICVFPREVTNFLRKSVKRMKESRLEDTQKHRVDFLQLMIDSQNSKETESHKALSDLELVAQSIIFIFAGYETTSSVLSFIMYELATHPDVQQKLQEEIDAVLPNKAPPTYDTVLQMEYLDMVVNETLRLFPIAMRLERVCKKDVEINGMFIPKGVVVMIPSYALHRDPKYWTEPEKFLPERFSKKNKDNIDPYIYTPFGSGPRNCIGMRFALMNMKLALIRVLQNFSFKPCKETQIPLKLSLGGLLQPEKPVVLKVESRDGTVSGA
T2 sequence (P05177 whole entry): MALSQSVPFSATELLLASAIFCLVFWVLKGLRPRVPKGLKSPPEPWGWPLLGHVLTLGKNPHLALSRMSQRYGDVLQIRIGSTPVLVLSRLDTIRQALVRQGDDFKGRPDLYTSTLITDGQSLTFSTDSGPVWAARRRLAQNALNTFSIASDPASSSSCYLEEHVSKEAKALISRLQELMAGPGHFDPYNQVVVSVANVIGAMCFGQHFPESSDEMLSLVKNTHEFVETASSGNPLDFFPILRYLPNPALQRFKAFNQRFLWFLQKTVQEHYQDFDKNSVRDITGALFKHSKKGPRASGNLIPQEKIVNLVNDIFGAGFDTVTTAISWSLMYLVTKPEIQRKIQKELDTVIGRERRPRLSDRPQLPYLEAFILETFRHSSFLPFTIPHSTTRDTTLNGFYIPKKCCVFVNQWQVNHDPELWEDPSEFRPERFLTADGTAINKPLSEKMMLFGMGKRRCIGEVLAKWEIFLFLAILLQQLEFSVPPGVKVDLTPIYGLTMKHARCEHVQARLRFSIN

IC50 (CYP3A4): > 50 nM
IC50 (CYP1A2): > 50 nM
IC50 (CYP2C9): > 50 nM
IC50 (CYP2D6): > 50000 nM
IC50 (Syk kinase): 15 nM
SMILES: c1cn2c(n1)c(Nc1ccc(N3CCOCC3)cc1)nc1ccc(-c3cn[nH]c3)cc12 [Compound 1]
